Measured values from US4418079A, “Conjugated ketone compounds in preventing platelet thrombosis” (Sumitomo Chemical Company, Limited, priority 1978, dated 1983).
In brackets after ≈: the same amount, converted by molar mass. Structures can show the parent of a compound that is named as a salt. Where two headings read alike, the source gives them in different places.

Key:
[1] = system: Neuroleptic activity (Anti apomorphine test); assay: Neuroleptic activity (anti apomorphine test); assay type: in vivo, rat; conditions: for neuroleptic activity, in words: rat, in vivo
From the text: No. ED50 (rat, s.c., mg/kg)
*P. A. J. Janssen et al.: ArzneimittelForschung, 15, 104-117 (1965)

[2] = system: collagen induced platelet aggregation; assay: In vitro inhibition of collagen induced platelet aggregation (aggregometer method of Born, modified by Mustard); assay type: cell-based, rabbit; conditions: Oryctolagus cuniculus
Method: (§1) The aggregometer method of Born [G. V. R. Born: J.Physiol., London, 162, 67 (1962)] as modified by Mustard et al. [J. F. Mustard et al.: J.Lab.Clin.Med., 64, 548 (1964)] was used to assess the in vitro activity of various compounds as to inhibition of collagen and adenosine diphosphate (ADP) induced platelet aggregation. Platelet rich plasma (PRP) was separated by centrifugation from citrated (3.8%) rabbit blood. ADP in final concentration of […] prepared according to the method described by Evans et al. [G. Evans et al.: J.Exp. Med., 128, 877 (1968)] was used to induce aggregation. The test compounds were dissolved in buffer solution so that 0.05 ml added to PRP would yield the desired test concentration. Vehicle control trials were done and compared with aggregation induced in platelet rich plasma containing various concentrations of the test compounds. Dose response curves were obtained, and 50% inhibitive concentration (IC50) values were calculated.

[3] = system: ADP induced platelet aggregation; assay: In vitro inhibition of ADP induced platelet aggregation (aggregometer method of Born, modified by Mustard); assay type: cell-based, rabbit; conditions: Oryctolagus cuniculus
Method: as §1

[4] = system: collagen induced platelet aggregation; assay: Ex vivo inhibition of collagen induced aggregation in PRP after oral administration to rats; conditions: Rattus norvegicus, PRP 1 hour after oral administration, read-out: ED50, 50% inhibition of the aggregation (collagen)
Method: (§2) The conjugated ketone compounds [I] were also tested ex vivo in rats where ADP or collagen was used to induce aggregation in PRP samples obtained 1 hour after oral administration. Blood was drawn after dosing and the procedure of platelet aggregation was the same as the in vitro experiments. Inhibitory values were calculated compared with the activity of PRP samples of vehicle treated rats. The dose required to produce 50% inhibition of the aggregation (ED50) was determined by dose response data obtained in this manner.

[5] = system: ADP induced platelet aggregation; assay: Ex vivo inhibition of ADP induced aggregation in PRP after oral administration to rats; conditions: Rattus norvegicus, PRP 1 hour after oral administration, read-out: ED50, 50% inhibition of the aggregation (ADP)
Method: as §2

[6] = system: blood platelet aggregation; assay: Blood platelet anti-aggregation activity (general statements); assay type: cell-based, rabbit; conditions: compared with compound [A] / compounds of U.S. Pat. No. 4,012,515
Method: as §1

[7] = in vitro, Collagen, Table 2, read-out: Blood platelet aggregation inhibitory activity IC50, Collagen
[8] = in vitro, ADP, Table 2, read-out: Blood platelet aggregation inhibitory activity IC50, ADP
[9] = in vitro, rabbit PRP, collagen induced, Table 1, read-out: Inhibitory activity IC50, Collagen
[10] = in vitro, rabbit PRP, ADP induced, Table 1, read-out: Inhibitory activity IC50, ADP

Row | IC50 [2, 9] [µg/mL] | IC50 [3, 10] [µg/mL] | Structure (SMILES) | also measured
1 | 2.6 (≈ 8.92 µM) | 3.6 (≈ 12.4 µM) | CCCN(C/C=C/C(=O)c1ccc(SC)cc1)CCC [Compound 24] | –
2 | 1.1 (≈ 4.21 µM) | 3 (≈ 11.5 µM) | CSc1ccc(C(=O)/C=C/CN2CCCC2)cc1 [Compound 25] | –
3 | 1.5 (≈ 5.45 µM) | 1.2 (≈ 4.36 µM) | CSc1ccc(C(=O)/C=C/CN2CCCCC2)cc1 [Compound 26] | –
4 | 4.2 (≈ 14.7 µM) | 3 (≈ 10.5 µM) | CCN(CC)C/C=C/C(=O)c1ccccc1C(F)(F)F [Compound 27] | –
5 | 3.1 (≈ 10.4 µM) | 2.7 (≈ 9.08 µM) | O=C(/C=C/CN1CCCCC1)c1ccc(C(F)(F)F)cc1 [Compound 28] | –
6 | 1.7 (≈ 6.36 µM) | 1.25 (≈ 4.68 µM) | CCN(CC)C/C=C/C(=O)c1ccc2ccccc2c1 [Compound 29] | –
7 | 2.2 (≈ 7.87 µM) | 2.2 (≈ 7.87 µM) | O=C(/C=C/CN1CCCCC1)c1ccc2ccccc2c1 [Compound 30] | –
8 | 1.8 (≈ 8.68 µM) | 3 (≈ 14.5 µM) | CCN(CC)C/C=C/C(=O)c1ccco1 [Compound 31] | –
9 | 5.8 (≈ 23.3 µM) | 4.5 (≈ 18 µM) | CCCCCCN(C)C/C=C/C(=O)c1ccco1 [Compound 32] | –
10 | 2.2 (≈ 10 µM) | 3.8 (≈ 17.3 µM) | O=C(/C=C/CN1CCCCC1)c1ccco1 [Compound 33] | –
11 | 2.3 (≈ 10.3 µM) | 3 (≈ 13.4 µM) | CCN(CC)C/C=C/C(=O)c1cccs1 [Compound 34] | –
12 | 1.8 (≈ 7.65 µM) | 2.8 (≈ 11.9 µM) | O=C(/C=C/CN1CCCCC1)c1cccs1 [Compound 35] | –

More lines, now with the values behind:

Row | Structure (SMILES) | IC50 [2, 9] [µg/mL] | IC50 [3, 10] [µg/mL] | also measured
13 | O=C(/C=C/CN1CCC(O)(c2cccc(C(F)(F)F)c2)CC1)c1ccc(F)cc1 [A, reference compound] | – | – | ED50 ([1]; Rattus norvegicus, sc, read-out: Neuroleptic activity (Anti apomorphine test) ED50): 0.1 mg/kg; IC50 [2, 7]: 3.5 µg/mL (≈ 8.59 µM); IC50 [3, 8]: 9 µg/mL (≈ 22.1 µM)
14 | CN(C)C/C=C/C(=O)c1ccccc1 [Compound 1] | 2 (≈ 10.6 µM) | 3.3 (≈ 17.4 µM) | –
15 | CCN(C)C/C=C/C(=O)c1ccccc1 [Compound 2] | 2.2 (≈ 10.8 µM) | 3 (≈ 14.8 µM) | –
16 | CCN(CC)C/C=C/C(=O)c1ccccc1 [Compound 3, N-(4-Phenyl-4-oxo-2-trans-butenyl)-N,N-diethylamine hydrobromide] | 1.5 | 3.3 | ED50 [4]: 3 mg/kg; ED50 [5]: 0.3 mg/kg; neuroleptic activity, in words [1]: does not produce any slight degree of neuroleptic activity; neuroleptic activity, in words ([1]; sc): No effect at 10 mg/kg; IC50 [2, 7]: 1.5 µg/mL; IC50 [3, 8]: 3.3 µg/mL; blood platelet anti-aggregation activity, in words [6]: more potent than the compound [A] in blood platelet anti-aggregation activity
17 | CCCN(C/C=C/C(=O)c1ccccc1)CCC [Compound 4] | 1.3 (≈ 5.3 µM) | 2.5 (≈ 10.2 µM) | –
18 | CC(C)N(C/C=C/C(=O)c1ccccc1)C(C)C [Compound 5] | 1.6 (≈ 6.52 µM) | 3.7 (≈ 15.1 µM) | –
19 | CCCCN(C/C=C/C(=O)c1ccccc1)CCCC [Compound 6] | 2.7 (≈ 9.87 µM) | 5.2 (≈ 19 µM) | –
20 | CN(C/C=C/C(=O)c1ccccc1)C12CC3CC(CC(C3)C1)C2 [Compound 7] | 2.4 (≈ 7.76 µM) | 3.6 (≈ 11.6 µM) | –
21 | CN(C/C=C/C(=O)c1ccccc1)C1CCCCC1 [Compound 8] | 3.7 (≈ 14.4 µM) | 1.8 (≈ 6.99 µM) | –
22 | O=C(/C=C/CN1CCCC1)c1ccccc1 [Compound 9] | 1.2 (≈ 5.57 µM) | 2.5 (≈ 11.6 µM) | –
23 | O=C(/C=C/CN1CCCCC1)c1ccccc1 [Compound 10] | 3.2 (≈ 14 µM) | 5.2 (≈ 22.7 µM) | ED50 [4]: 2 mg/kg
24 | CCN(CC)CC/C=C/C(=O)c1ccccc1 [Compound 11] | 1.8 (≈ 7.78 µM) | 6 (≈ 25.9 µM) | –
25 | CCN(CC)C/C=C/C(=O)c1ccccc1Cl [Compound 12] | 2.8 (≈ 11.1 µM) | 3.1 (≈ 12.3 µM) | –
26 | O=C(/C=C/CN1CCCCC1)c1cccc(Cl)c1 [Compound 13] | 3.1 (≈ 11.8 µM) | 3.1 (≈ 11.8 µM) | –
27 | CCN(CC)C/C=C/C(=O)c1ccc(Cl)cc1 [Compound 14] | 2.5 (≈ 9.93 µM) | 1.6 (≈ 6.36 µM) | –
28 | O=C(/C=C/CN1CCCCC1)c1ccc(Cl)cc1 [Compound 15] | 1.6 (≈ 6.07 µM) | 4.8 (≈ 18.2 µM) | –
29 | O=C(/C=C/CN1CCCCC1)c1ccc(Br)cc1 [Compound 16] | 3 (≈ 9.73 µM) | 3.2 (≈ 10.4 µM) | –
30 | CCN(CC)C/C=C/C(=O)c1ccc(C)cc1 [Compound 17] | 1.5 (≈ 6.48 µM) | 2.3 (≈ 9.94 µM) | –
31 | Cc1ccc(C(=O)/C=C/CN2CCCCC2)cc1 [Compound 18] | 3.4 (≈ 14 µM) | 2 (≈ 8.22 µM) | –
32 | CCN(CC)C/C=C/C(=O)c1ccc(OC)cc1 [Compound 19] | 3.5 (≈ 14.2 µM) | 3.7 (≈ 15 µM) | –
33 | CCN(CC)C/C=C/C(=O)c1ccc2c(c1)OCO2 [Compound 20] | 3.7 (≈ 14.2 µM) | 1.3 (≈ 4.97 µM) | –
34 | CSc1ccccc1C(=O)/C=C/CN1CCCCC1 [Compound 21] | 3.7 (≈ 13.4 µM) | 3.2 (≈ 11.6 µM) | –
35 | CSc1ccc(C(=O)/C=C/CN(C)C)cc1 [Compound 22] | 2.2 (≈ 9.35 µM) | 1.2 (≈ 5.1 µM) | –
36 | CCN(CC)C/C=C/C(=O)c1ccc(SC)cc1 [Compound 23] | 2.4 (≈ 9.11 µM) | 1.4 (≈ 5.31 µM) | –
37 | O=C(/C=C/CN1CC2CCC(CC2)C1)c1ccccc1 [Compound 36] | 1.2 (≈ 4.45 µM) | 2.7 (≈ 10 µM) | –
38 | COc1ccc(Cc2nccc3cc(OC)c(OC)cc23)cc1OC [Papaverine, reference compound] | – | – | IC50 ([2]; read-out: Inhibitory activity IC50, Collagen): 60 µg/mL (≈ 177 µM); IC50 ([3]; read-out: Inhibitory activity IC50, ADP): 65 µg/mL (≈ 192 µM)
